Assay results from patent US12522596B2, “Compounds as GLP-1R agonists” (Terns Pharmaceuticals, Inc., priority 2021, dated 2026).
Read-outs that look alike come from different tables or passages of the source.

Assay: Pharmacokinetics in hGLP-1R mice after oral dosing
Format: in vivo, male C57BL/6J hGLP-1R mouse
Conditions: male, C57BL/6J hGLP-1R, mouse, plasma, po; for AUC0-inf: read-out: AUC0-inf; for MRT inf: read-out: MRT0-inf; for MRT last: read-out: MRT0-last; for concentration at 120 min: hGLP-1R mouse plasma collected at 120 min (IPGTT cohort)
Experimental: IPGTT (120 min)—PK bleeding: 40 μL blood samples (all treatment groups) were collected from mice under the jaw at IPGTT-120 min after blood glucose measurement into pre-chilled EDTA-2K tubes. Blood samples were processed for plasma by centrifugation at 4° C., 3200×g for 10 min. 15 μL plasma was stored at −80° C. for PK analysis. From 4 mice in Group 7 of the PD cohort, whole brain was collected after blood is harvested at 120 min post dose, rinsed with saline and patted dry and placed into a pre-weighed tube and stored at −80° C. collected for PK analysis.
PK bleeding group design is described in Table 9.
PK bleeding: 30 μL blood was collected at 0.25, 0.5, 1, 2, 4, and 8 h. Blood samples were processed for plasma by centrifugation at 4° C., 3200×g for 10 min. 12 μL plasma was collected at −80° C. for further analysis. From 3 mice in Group 7 of the PK cohort, whole brain was collected after blood is harvested at 8 hr post dose, rinsed with saline and patted dry and placed into a pre-weighed tube and stored at −80° C. collected for PK analysis.
For plasma: An aliquot of 3 μL sample was protein precipitated with 60 μL internal standard (100 ng/mL Labetalol & 100 ng/ml Dexamethasone & 100 ng/ml Tolbutamide & 100 ng/mL Verapamil & 100 ng/ml Glyburide & 100 ng/ml Celecoxib in ACN) and then the mixture was vortex-mixed for 10 min at 800 rpm and centrifuged for 15 min at 3220×g, 4° C.
The linear/log trapezoidal rule was applied in obtaining the PK parameters. Individual plasma concentration values that were below the lower limit of quantitation (LOQ) were excluded from the PK parameter calculation. The nominal dose levels and nominal sampling times were used in the calculation of all pharmacokinetic parameters.

[1] = 0.3 mg/kg, hGLP-1R mouse plasma, PO 0.3 mg/kg, read-out: Mean Concentration
[2] = 0.3 mg/kg, hGLP-1R mouse plasma, PO 0.3 mg/kg, individual animals, read-out: Concentration
[3] = 0.3 mg/kg, hGLP-1R mouse plasma, PO 0.3 mg/kg, mean
[4] = 1 mg/kg, hGLP-1R mouse plasma, PO 1 mg/kg, individual animals, read-out: Concentration
[5] = 1 mg/kg, hGLP-1R mouse plasma, PO 1 mg/kg, read-out: Mean Concentration
[6] = 1 mg/kg, hGLP-1R mouse plasma, PO 1 mg/kg, individual mice
[7] = 1 mg/kg, hGLP-1R mouse plasma, PO 1 mg/kg, mean
[8] = 3 mg/kg, hGLP-1R mouse plasma, PO 3 mg/kg, read-out: Mean Concentration
[9] = 3 mg/kg, hGLP-1R mouse plasma, PO 3 mg/kg, mean

For `N#Cc1ccc(COc2cccc(C3CCN(Cc4nc5ccc(C(=O)O)cc5n4Cc4cncs4)CC3)n2)c(F)c1` [Compound 2], the concentration at 0.5 h [1] was 80.6 ng/mL, the concentration at 1 h [2] was 43.3 ng/mL and the concentration at 1 h [1] was 49.4 ng/mL. It also gave a concentration at 2 h (0.3 mg/kg, hGLP-1R mouse plasma, PO 0.3 mg/kg) of 10.6 ng/mL, a concentration at 4 h [1] of 3.74 ng/mL and a concentration at 8 h [2] of 2.34 ng/mL. It also gave a concentration at 8 h [1] of 1.99 ng/mL, an AUC0-inf (0.3 mg/kg, hGLP-1R mouse plasma, PO 0.3 mg/kg, individual mice) of 124 ng·h/mL and an AUC(0-t) (0.3 mg/kg, hGLP-1R mouse plasma, PO 0.3 mg/kg, individual mice, read-out: AUC0-last) of 117 ng·h/mL. It also gave a Cmax (0.3 mg/kg, hGLP-1R mouse plasma, PO 0.3 mg/kg, individual mice, read-out: Cmax) of 63.4 ng/mL, a Tmax (0.3 mg/kg, hGLP-1R mouse plasma, PO 0.3 mg/kg, individual mice, read-out: Tmax) of 0.5 h and an AUC0-inf [3] of 111 ng·h/mL. For the same compound, the AUC(0-t) (0.3 mg/kg, hGLP-1R mouse plasma, PO 0.3 mg/kg, mean, read-out: AUC0-last) was 107 ng·h/mL, the Cmax (0.3 mg/kg, hGLP-1R mouse plasma, PO 0.3 mg/kg, mean, read-out: Cmax) was 82.7 ng/mL and the MRT inf [3] was 1.7 h. For the same compound, the MRT last [3] was 1.4 h, the half-life (0.3 mg/kg, hGLP-1R mouse plasma, PO 0.3 mg/kg, mean, read-out: T1/2 (converted)) was 1.4 h and the Tmax (0.3 mg/kg, hGLP-1R mouse plasma, PO 0.3 mg/kg, mean, read-out: Tmax) was 0.417 h. The AUC(0-t) (1 mg/kg, hGLP-1R mice, total, PO 1.0 mg/kg, read-out: AUClast Mean) was 390 ng·h/mL, the Cmax (1 mg/kg, hGLP-1R mice, total, PO 1.0 mg/kg, read-out: Cmax Mean) was 283 ng/mL and the half-life (1 mg/kg, hGLP-1R mice, total, PO 1.0 mg/kg, read-out: T1/2 (converted)) was 1.42 h. For the same compound, the Tmax (1 mg/kg, hGLP-1R mice, total, PO 1.0 mg/kg, read-out: Tmax Median) was 0.5 h, the concentration at 120 min (1 mg/kg, PO 1 mg/kg, read-out: Mean Concentration) was 69.8 ng/mL and the concentration at 0.25 h [4] was 320 ng/mL. It also gave a concentration at 0.25 h [5] of 251 ng/mL, a concentration at 0.5 h [4] of 329 ng/mL and a concentration at 0.5 h [5] of 283 ng/mL. For the same compound, the concentration at 1 h [4] was 252 ng/mL, the concentration at 1 h [5] was 197 ng/mL and the concentration at 2 h (1 mg/kg, hGLP-1R mouse plasma, PO 1 mg/kg) was 48.6 ng/mL. For the same compound, the concentration at 4 h [4] was 7.58 ng/mL, the concentration at 4 h [5] was 7.51 ng/mL and the concentration at 8 h [5] was 4.73 ng/mL. It also gave an AUC0-inf [6] of 507 ng·h/mL, an AUC(0-t) (1 mg/kg, hGLP-1R mouse plasma, PO 1 mg/kg, individual mice, read-out: AUC0-last) of 498 ng·h/mL and a Cmax (1 mg/kg, hGLP-1R mouse plasma, PO 1 mg/kg, individual mice, read-out: Cmax) of 329 ng/mL. The MRT inf [6] was 1.47 h, the MRT last [6] was 1.32 h and the half-life (1 mg/kg, hGLP-1R mouse plasma, PO 1 mg/kg, individual mice, read-out: T1/2 (converted)) was 1.28 h. It also gave a Tmax (1 mg/kg, hGLP-1R mouse plasma, PO 1 mg/kg, individual mice, read-out: Tmax) of 0.5 h, an AUC0-inf [7] of 400 ng·h/mL and an AUC(0-t) (1 mg/kg, hGLP-1R mouse plasma, PO 1 mg/kg, mean, read-out: AUC0-last) of 390 ng·h/mL. It also gave a Cmax (1 mg/kg, hGLP-1R mouse plasma, PO 1 mg/kg, mean, read-out: Cmax) of 283 ng/mL, an MRT inf [7] of 1.57 h and an MRT last [7] of 1.35 h. It also gave a half-life (1 mg/kg, hGLP-1R mouse plasma, PO 1 mg/kg, mean, read-out: T1/2 (converted)) of 1.42 h, a Tmax (1 mg/kg, hGLP-1R mouse plasma, PO 1 mg/kg, mean, read-out: Tmax) of 0.5 h and a Tmax (3 mg/kg, hGLP-1R mice, oral, across the doses tested (0.3, 1 and, for Compound 2, 3 mg/kg), read-out: median Tmax) of 0.5 h. For the same compound, the AUC(0-t) (3 mg/kg, hGLP-1R mice, total, PO 3.0 mg/kg, read-out: AUClast Mean) was 2440 ng·h/mL, the Cmax (3 mg/kg, hGLP-1R mice, total, PO 3.0 mg/kg, read-out: Cmax Mean) was 1820 ng/mL and the half-life (3 mg/kg, hGLP-1R mice, total, PO 3.0 mg/kg, read-out: T1/2 (converted)) was 2.03 h. The Tmax (3 mg/kg, hGLP-1R mice, total, PO 3.0 mg/kg, read-out: Tmax Median) was 0.5 h, the concentration at 120 min (3 mg/kg, PO 3 mg/kg, read-out: Mean Concentration) was 277 ng/mL and the concentration at 0.25 h [8] was 1570 ng/mL. The concentration at 0.5 h [8] was 1790 ng/mL, the concentration at 1 h [8] was 990 ng/mL and the concentration at 2 h (3 mg/kg, hGLP-1R mouse plasma, PO 3 mg/kg) was 304 ng/mL. For the same compound, the concentration at 4 h [8] was 84.4 ng/mL, the concentration at 8 h (3 mg/kg, hGLP-1R mouse plasma, PO 3 mg/kg, individual animals, read-out: Concentration) was 92.1 ng/mL and the concentration at 8 h [8] was 47.5 ng/mL. For the same compound, the MRT last (3 mg/kg, hGLP-1R mouse plasma, PO 3 mg/kg, individual mice) was 2.04 h, the Tmax (3 mg/kg, hGLP-1R mouse plasma, PO 3 mg/kg, individual mice, read-out: Tmax) was 0.5 h and the AUC0-inf [9] was 2620 ng·h/mL. It also gave an AUC(0-t) (3 mg/kg, hGLP-1R mouse plasma, PO 3 mg/kg, mean, read-out: AUC0-last) of 2440 ng·h/mL, a Cmax (3 mg/kg, hGLP-1R mouse plasma, PO 3 mg/kg, mean, read-out: Cmax) of 1820 ng/mL and an MRT inf [9] of 2.64 h. For the same compound, the MRT last [9] was 1.66 h, the half-life (3 mg/kg, hGLP-1R mouse plasma, PO 3 mg/kg, mean, read-out: T1/2 (converted)) was 2.03 h and the Tmax (3 mg/kg, hGLP-1R mouse plasma, PO 3 mg/kg, mean, read-out: Tmax) was 0.417 h. It also gave a half-life (hGLP-1R male mice, oral, across doses, read-out: terminal T1/2) of less than 2 h.
